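Assay format: 96-well plates, 48-hour exposure. The concentration for 50% growth inhibition is given as GI50.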 Calls of active or inactive are those of the source. Rule as the data show it: active = GI50 up to about 1.1 µM and inactive = higher.
How the values were obtained:
Assay in all cases: growth of human tumour cells (NCI), 48 h
A549 = system: A549
HCC 2998 = system: HCC 2998
HCT-116 = system: HCT-116
HT-29 = system: HT-29
IGROV-1 = system: IGROV-1
LOX IMVI = system: LOX IMVI
MCF7 = system: MCF7
MDA-MB-231 = system: MDA-MB-231
MDA-N = system: MDA-N
Malme-3M = system: Malme-3M
NCI-H23 = system: NCI-H23
NCI-H460 = system: NCI-H460
OVCAR-8 = system: OVCAR-8
SF-539 = system: SF-539
SK-MEL-28 = system: SK-MEL-28
SK-OV-3 = system: SK-OV-3
SN12C = system: SN12C
SW-620 = system: SW-620
U-251 = system: U-251
BT-549 = system: BT-549

Measured: GI50

CC1CN=C(N(C)C(=O)Nc2ccc(Cl)c(Cl)c2)S1 (stereo not drawn)
inactive: A549 27.7 µM | HCC 2998 38.6 µM | HCT-116 39 µM | HT-29 33 µM | IGROV-1 27.2 µM | LOX IMVI 17.5 µM | MCF7 19.3 µM | MDA-MB-231 28.1 µM | MDA-N 31 µM | Malme-3M 46.5 µM | NCI-H23 32.3 µM | NCI-H460 36 µM | OVCAR-8 27.2 µM | SF-539 17.7 µM | SK-MEL-28 16.6 µM | SK-OV-3 > 100 µM | SN12C 26.5 µM | SW-620 29.5 µM | U-251 31.6 µM

O=C1C2=Cc3ccccc3CCN2c2ccc([N+](=O)[O-])cc21
inactive: A549 31.3 µM | HCC 2998 > 100 µM | HCT-116 > 100 µM | HT-29 > 100 µM | IGROV-1 > 100 µM | LOX IMVI 92.7 µM | MCF7 2.92 µM | MDA-MB-231 > 100 µM | MDA-N > 100 µM | Malme-3M 32.7 µM | NCI-H23 38.5 µM | NCI-H460 30.7 µM | OVCAR-8 35.4 µM | SF-539 82.6 µM | SK-MEL-28 > 100 µM | SN12C 81.5 µM | SW-620 > 100 µM | U-251 > 100 µM

CCCCNC1CCC2(SCCS2)c2[nH]c3ccccc3c21 (stereo not drawn)
inactive: A549 56.9 µM | BT-549 23.4 µM | HCC 2998 18.9 µM | HCT-116 7.4 µM | HT-29 25.2 µM | IGROV-1 25.4 µM | LOX IMVI 2.64 µM | MCF7 3.11 µM | MDA-MB-231 16.6 µM | Malme-3M 16.5 µM | NCI-H23 32 µM | NCI-H460 33.3 µM | OVCAR-8 14.4 µM | SF-539 13.7 µM | SK-MEL-28 34.3 µM | SK-OV-3 49.8 µM | SN12C 37.7 µM | SW-620 25.8 µM | U-251 43.1 µM

COc1ccccc1C(=O)OCC1CCCN2CCCCC12 (stereo not drawn)
inactive: A549 25.8 µM | BT-549 17.7 µM | HCC 2998 17.8 µM | HCT-116 40.3 µM | HT-29 16.6 µM | LOX IMVI 17.1 µM | MCF7 42.4 µM | MDA-MB-231 24.8 µM | Malme-3M 33.6 µM | NCI-H23 > 100 µM | NCI-H460 21.6 µM | OVCAR-8 21 µM | SF-539 > 100 µM | SK-MEL-28 26.4 µM | SK-OV-3 > 100 µM | SN12C 29.7 µM | SW-620 > 100 µM | U-251 26 µM

C=CCNC(=S)N/C=C(\C(=O)OCC)C(=O)C(=O)OCC
inactive: A549 > 100 µM | HCC 2998 > 100 µM | HCT-116 > 100 µM | HT-29 > 100 µM | IGROV-1 > 100 µM | LOX IMVI > 100 µM | MCF7 > 100 µM | MDA-MB-231 > 100 µM | MDA-N > 100 µM | Malme-3M > 100 µM | NCI-H23 > 100 µM | NCI-H460 > 100 µM | OVCAR-8 > 100 µM | SF-539 > 100 µM | SK-MEL-28 > 100 µM | SK-OV-3 > 100 µM | SN12C > 100 µM | SW-620 > 100 µM | U-251 > 100 µM

CC1=[N+]([O-])C2(CCCC2)N(O)C1(C)C
inactive: A549 > 100 µM | HCC 2998 > 100 µM | HCT-116 > 100 µM | HT-29 > 100 µM | IGROV-1 > 100 µM | LOX IMVI > 100 µM | MCF7 > 100 µM | MDA-MB-231 > 100 µM | MDA-N > 100 µM | Malme-3M > 100 µM | NCI-H23 > 100 µM | NCI-H460 > 100 µM | OVCAR-8 > 100 µM | SF-539 > 100 µM | SK-MEL-28 > 100 µM | SK-OV-3 > 100 µM | SN12C > 100 µM | SW-620 > 100 µM | U-251 > 100 µM

CCSCCCCC(c1ccc(O)cc1)C(C)(CC)c1ccc(O)cc1 (stereo not drawn)
inactive: A549 25.4 µM | HCC 2998 15.3 µM | HCT-116 17.9 µM | IGROV-1 16.9 µM | LOX IMVI 17.6 µM | MCF7 27.4 µM | MDA-MB-231 21.7 µM | MDA-N 23.2 µM | Malme-3M 20.3 µM | NCI-H23 19.6 µM | NCI-H460 30.1 µM | OVCAR-8 19.3 µM | SF-539 20 µM | SK-MEL-28 18 µM | SK-OV-3 21.1 µM | SN12C 33.1 µM | SW-620 21.4 µM | U-251 16.4 µM

C[C@@H]([C@H]1CC[C@@]2(C)[C@@H]3CC[C@@H]4C(=CC3=CC[C@]12C)CC[C@H](N(C)C)C4(C)C)N(C)C [BUXAMINE A]
inactive: HCC 2998 > 100 µM | HCT-116 > 100 µM | HT-29 > 100 µM | IGROV-1 > 100 µM | LOX IMVI > 100 µM | MCF7 > 100 µM | MDA-MB-231 > 100 µM | MDA-N > 100 µM | Malme-3M > 100 µM | NCI-H23 > 100 µM | NCI-H460 > 100 µM | OVCAR-8 > 100 µM | SF-539 > 100 µM | SK-MEL-28 > 100 µM | SK-OV-3 > 100 µM | SN12C > 100 µM | SW-620 > 100 µM | U-251 > 100 µM
